Reference: EP0562479A1, “1-Phenyl-5-heterocyclic-1H-1, 2,4-triazole-3-carboxamide derivates, process for preparation of the same, and fungicidal composition comprising the same” (KUREHA CHEMICAL INDUSTRY CO., LTD., priority 1992, dated 1993)

System: Botrytis cinerea
Assay: Test for controlling effect against cucumber gray mold
Type: in vivo, Botrytis cinerea on cucumber
Conditions: wettable powder sprayed 5 ml per pot, lesion areas three days after inoculation
Experimental: Test Example 1 〈Test for controlling effect against cucumber gray mold (Botrytis cinerea on cucumber)〉 A wettable powder similar to that prepared in Formulation Example 2, diluted with water to a prescribed concentration, was sprayed onto the cucumber plants of the first leaf stage (variety: […], one plant per pot) growing in an unglazed pot (diameter: 10 cm), in an amount of 5 ml per pot. After drying the sprayed leaves in the air, a circular cutting (diameter: 4 mm) of agar containing Botrytis cinerea, which had been cultured in advance in a potato-sucrose agar medium at 20°C for 3 days, was attached directly to the center part of the leaves, and the pots maintained at 20-22°C under high humidity conditions. Three days after the inoculation, lesion areas of the disease were examined to calculate the inhibition rate according to the following equation. [formula]

| SMILES | Inhibition rate (%) at concentration of 500 ppm Cucumber gray mold [%] |
| --- | --- |
| CCCCOC(c1cccc(-n2nc(C(N)=O)nc2-c2sccc2C)c1)C(C)C (centres unmarked) [Compound 16, 1-[3-[(1-butoxy-2-methyl)propyl]phenyl]-5-(3-methylthiophen-2-yl)-1H-1,2,4-triazole-3-carboxamide] | 94 |
| CCCCOC(c1cccc(-n2nc(C(N)=O)nc2-c2cccc(C)n2)c1)C(C)C (centres unmarked) [Compound 7, 1-[3-[(1-butoxy-2-methyl)propyl]phenyl]-5-(6-methylpyridin-2-yl)-1H-1,2,4-triazole-3-carboxamide] | 95 |
